Reference: US20090274764A1, “Hollow Foam Beads for Treatment of Glioblastoma” (priority 2008, published 2009)
Read-outs that look alike come from different tables or passages of the source.

Legend:
rodent 9L glioma = assay: Inhibition of tumor proliferation, 9L cells counted after 5 days; type: cell-based; settings: 120 h, read-out: growth inhibition
Procedure: The 9L gliosarcoma cell line was obtained from Dr. M. Barker at the University of California at San Francisco Brain Tumor Research Center (San Francisco, Calif., USA). The cells were maintained in tissue culture in Dulbecco's minimum essential medium with 10% fetal bovine serum, streptomycin (80.5 units/ml), penicillin (base; 80.5 units/ml), and 1% L-glutamine (all products from GIBCO laboratories, Grand Island, N.Y., USA). Cells were maintained in a humidified atmosphere of 5% CO2 at 37° C. The cells were grown to confluence, detached with 0.25% trypsin in Dulbecco's phosphate-buffered saline, and resuspended in medium.
Inhibition of tumor proliferation was tested against the rodent 9L glioma. […] The data were analyzed using the two-tailed Student's t-test.

9L gliosarcoma = test system: 9L gliosarcoma
Text: 88 rats were intracranially implanted on Day 0 with 9L gliosarcoma.

## CO[C@H]1C[C@@H]2CC[C@@H](C)[C@@](O)(O2)C(=O)C(=O)N2CCCC[C@H]2C(=O)O[C@H]([C@H](C)C[C@@H]2CC[C@@H](O)[C@H](OC)C2)CC(=O)[C@H](C)/C=C(\C)[C@@H](O)[C@@H](OC)C(=O)[C@H](C)C[C@H](C)/C=C/C=C/C=C/1C [Rapamycin, rapamycin]
Rodent 9L glioma; 0.01 microgram/ml
  inhibition at 0.01 µg/mL: 34%
Rodent 9L glioma; 10 microgram/ml
  inhibition at 10 µg/mL: 62%
9L gliosarcoma; rat, in vivo, ip, 2 mg/kg
  toxicity: none of the rats that received systemic injections of rapamycin showed overt signs of toxicity
9L gliosarcoma; treated Day 0, at Day 0
  % Survival: 100%
9L gliosarcoma; treated Day 0, at Day 12, 1st line
  % Survival: 100%
9L gliosarcoma; treated Day 0, at Day 12, 2nd line
  % Survival: 100%
9L gliosarcoma; treated Day 0, at Day 13, 1st line
  % Survival: 100%
9L gliosarcoma; treated Day 0, at Day 13, 2nd line
  % Survival: 100%
9L gliosarcoma; treated Day 0, at Day 14, 1st line
  % Survival: 100%
9L gliosarcoma; treated Day 0, at Day 14, 2nd line
  % Survival: 100%
9L gliosarcoma; treated Day 0, at Day 15, 1st line
  % Survival: 100%
9L gliosarcoma; treated Day 0, at Day 15, 2nd line
  % Survival: 100%
9L gliosarcoma; treated Day 0, at Day 16, 1st line
  % Survival: 100%
9L gliosarcoma; treated Day 0, at Day 16, 2nd line
  % Survival: 100%
9L gliosarcoma; treated Day 0, at Day 17, 1st line
  % Survival: 100%
9L gliosarcoma; treated Day 0, at Day 17, 2nd line
  % Survival: 100%
9L gliosarcoma; treated Day 0, at Day 18, 1st line
  % Survival: 100%
9L gliosarcoma; treated Day 0, at Day 18, 2nd line
  % Survival: 100%
9L gliosarcoma; treated Day 0, at Day 19, 1st line
  % Survival: 100%
9L gliosarcoma; treated Day 0, at Day 19, 2nd line
  % Survival: 100%
9L gliosarcoma; treated Day 0, at Day 20, 1st line
  % Survival: 100%
9L gliosarcoma; treated Day 0, at Day 20, 2nd line
  % Survival: 100%
9L gliosarcoma; treated Day 0, at Day 21, 1st line
  % Survival: 100%
9L gliosarcoma; treated Day 0, at Day 21, 2nd line
  % Survival: 100%
9L gliosarcoma; treated Day 0, at Day 22, 1st line
  % Survival: 100%
9L gliosarcoma; treated Day 0, at Day 22, 2nd line
  % Survival: 100%
9L gliosarcoma; treated Day 0, at Day 23, 1st line
  % Survival: 100%
9L gliosarcoma; treated Day 0, at Day 23, 2nd line
  % Survival: 100%
9L gliosarcoma; treated Day 0, at Day 24, 1st line
  % Survival: 100%
9L gliosarcoma; treated Day 0, at Day 24, 2nd line
  % Survival: 100%
9L gliosarcoma; treated Day 0, at Day 25, 1st line
  % Survival: 100%
9L gliosarcoma; treated Day 0, at Day 25, 2nd line
  % Survival: 75%
9L gliosarcoma; treated Day 0, at Day 26, 1st line
  % Survival: 75%
9L gliosarcoma; treated Day 0, at Day 26, 2nd line
  % Survival: 75%
9L gliosarcoma; treated Day 0, at Day 27, 1st line
  % Survival: 75%
9L gliosarcoma; treated Day 0, at Day 27, 2nd line
  % Survival: 75%
9L gliosarcoma; treated Day 0, at Day 28, 1st line
  % Survival: 75%
9L gliosarcoma; treated Day 0, at Day 28, 2nd line
  % Survival: 50%
9L gliosarcoma; treated Day 0, at Day 29, 1st line
  % Survival: 50%
9L gliosarcoma; treated Day 0, at Day 29, 2nd line
  % Survival: 50%
9L gliosarcoma; treated Day 0, at Day 30, 1st line
  % Survival: 50%
9L gliosarcoma; treated Day 0, at Day 30, 2nd line
  % Survival: 37.5%
9L gliosarcoma; treated Day 0, at Day 31, 1st line
  % Survival: 37.5%
9L gliosarcoma; treated Day 0, at Day 31, 2nd line
  % Survival: 37.5%
9L gliosarcoma; treated Day 0, at Day 32, 1st line
  % Survival: 37.5%
9L gliosarcoma; treated Day 0, at Day 32, 2nd line
  % Survival: 37.5%
9L gliosarcoma; treated Day 0, at Day 33, 1st line
  % Survival: 37.5%
9L gliosarcoma; treated Day 0, at Day 33, 2nd line
  % Survival: 37.5%
9L gliosarcoma; treated Day 0, at Day 35, 1st line
  % Survival: 37.5%
9L gliosarcoma; treated Day 0, at Day 35, 2nd line
  % Survival: 25%
9L gliosarcoma; treated Day 0, at Day 40, 1st line
  % Survival: 25%
9L gliosarcoma; treated Day 0, at Day 41, 2nd line
  % Survival: 0%
9L gliosarcoma; treated Day 5, at Day 0
  % Survival: 100%
9L gliosarcoma; treated Day 5, at Day 12, 1st line
  % Survival: 100%
9L gliosarcoma; treated Day 5, at Day 12, 2nd line
  % Survival: 100%
9L gliosarcoma; treated Day 5, at Day 13, 1st line
  % Survival: 100%
9L gliosarcoma; treated Day 5, at Day 13, 2nd line
  % Survival: 100%
9L gliosarcoma; treated Day 5, at Day 14, 1st line
  % Survival: 100%
9L gliosarcoma; treated Day 5, at Day 14, 2nd line
  % Survival: 100%
9L gliosarcoma; treated Day 5, at Day 15, 1st line
  % Survival: 100%
9L gliosarcoma; treated Day 5, at Day 15, 2nd line
  % Survival: 100%
9L gliosarcoma; treated Day 5, at Day 16, 1st line
  % Survival: 100%
9L gliosarcoma; treated Day 5, at Day 16, 2nd line
  % Survival: 100%
9L gliosarcoma; treated Day 5, at Day 17, 1st line
  % Survival: 100%
9L gliosarcoma; treated Day 5, at Day 17, 2nd line
  % Survival: 100%
9L gliosarcoma; treated Day 5, at Day 18, 1st line
  % Survival: 100%
9L gliosarcoma; treated Day 5, at Day 18, 2nd line
  % Survival: 100%
9L gliosarcoma; treated Day 5, at Day 19, 1st line
  % Survival: 100%
9L gliosarcoma; treated Day 5, at Day 19, 2nd line
  % Survival: 100%
9L gliosarcoma; treated Day 5, at Day 20, 1st line
  % Survival: 100%
9L gliosarcoma; treated Day 5, at Day 20, 2nd line
  % Survival: 100%
9L gliosarcoma; treated Day 5, at Day 21, 1st line
  % Survival: 100%
9L gliosarcoma; treated Day 5, at Day 21, 2nd line
  % Survival: 100%
9L gliosarcoma; treated Day 5, at Day 22, 1st line
  % Survival: 100%
9L gliosarcoma; treated Day 5, at Day 22, 2nd line
  % Survival: 100%
9L gliosarcoma; treated Day 5, at Day 23, 1st line
  % Survival: 100%
9L gliosarcoma; treated Day 5, at Day 23, 2nd line
  % Survival: 100%
9L gliosarcoma; treated Day 5, at Day 24, 1st line
  % Survival: 100%
9L gliosarcoma; treated Day 5, at Day 24, 2nd line
  % Survival: 100%
9L gliosarcoma; treated Day 5, at Day 25, 1st line
  % Survival: 100%
9L gliosarcoma; treated Day 5, at Day 26, 2nd line
  % Survival: 75%
9L gliosarcoma; treated Day 5, at Day 27, 1st line
  % Survival: 75%
9L gliosarcoma; treated Day 5, at Day 27, 2nd line
  % Survival: 62.5%
9L gliosarcoma; treated Day 5, at Day 28, 1st line
  % Survival: 62.5%
9L gliosarcoma; treated Day 5, at Day 28, 2nd line
  % Survival: 50%
9L gliosarcoma; treated Day 5, at Day 29, 1st line
  % Survival: 50%
9L gliosarcoma; treated Day 5, at Day 29, 2nd line
  % Survival: 50%
9L gliosarcoma; treated Day 5, at Day 30, 1st line
  % Survival: 50%
9L gliosarcoma; treated Day 5, at Day 30, 2nd line
  % Survival: 50%
9L gliosarcoma; treated Day 5, at Day 31, 1st line
  % Survival: 50%
9L gliosarcoma; treated Day 5, at Day 31, 2nd line
  % Survival: 50%
9L gliosarcoma; treated Day 5, at Day 32, 1st line
  % Survival: 50%
9L gliosarcoma; treated Day 5, at Day 32, 2nd line
  % Survival: 37.5%
9L gliosarcoma; treated Day 5, at Day 33, 1st line
  % Survival: 37.5%
9L gliosarcoma; treated Day 5, at Day 33, 2nd line
  % Survival: 37.5%
9L gliosarcoma; treated Day 5, at Day 35, 1st line
  % Survival: 37.5%
9L gliosarcoma; treated Day 5, at Day 35, 2nd line
  % Survival: 37.5%
9L gliosarcoma; treated Day 5, at Day 40, 1st line
  % Survival: 37.5%
9L gliosarcoma; treated Day 5, at Day 40, 2nd line
  % Survival: 37.5%
9L gliosarcoma; treated Day 5, at Day 41, 1st line
  % Survival: 37.5%
9L gliosarcoma; treated Day 5, at Day 41, 2nd line
  % Survival: 0%
9L gliosarcoma; treatment Day 0
  Statistical Significance (survival) vs Day 0-0.2%: 0.4226
  Statistical Significance (survival) vs Day 0-2.2%: 0.2237
  Statistical Significance (survival) vs Day 0-28%: 0.7869
  Statistical Significance (survival) vs Day 0-Placebo: 0.0001
  Statistical Significance (survival) vs Day 5-0.2%: 0.0002
  Statistical Significance (survival) vs Day 5-2.2%: 0.0008
  Statistical Significance (survival) vs Day 5-Placebo: 0.0001
  Statistical Significance (survival) vs Day 5-Systemic: 0.5157
9L gliosarcoma; treatment Day 5
  Statistical Significance (survival) vs Day 0-0.2%: 0.2137
  Statistical Significance (survival) vs Day 0-28%: 0.9992
  Statistical Significance (survival) vs Day 0-Placebo: 0.0001
  Statistical Significance (survival) vs Day 0-Systemic: 0.5157
  Statistical Significance (survival) vs Day 5-0.2%: 0.0001
  Statistical Significance (survival) vs Day 5-2.2%: 0.003
  Statistical Significance (survival) vs Day 5-28%: 0.222
  Statistical Significance (survival) vs Day 5-Placebo: 0.0001
9L gliosarcoma; treatment initiated 5 days after tumor implantation
  Mean Survival: 29 days
9L gliosarcoma; treatment initiated concurrently with tumor implantation (Day 0)
  Mean Survival: 28 days
